According to patent US20250276066A1, “METHODS, COMPOSITIONS AND COMPOUNDS FOR TREATING AGE-RELATED DISEASES AND CONDITIONS” (GERO PTE. LTD., priority 2021, published 2025):
Read-outs that look alike come from different tables or passages of the source.

Legend:
[1] = system: C. elegans; assay: C. elegans lifespan screening (survival) assay; type: in vivo, Caenorhabditis elegans; conditions: for Mean LS ext., %: mean lifespan extension vs control, doses (uM); for Mean LS*: mean lifespan, dose uM: Panobinostat 1, Entinostat 10, Topotecan 5, PI-103 10, PHA-793887 10, Triptolide 10, KU-0063794 10, Trichostatin A 2, control 22.2 d
Excerpt: • 1. […] Then, with the help of linear gene-wise regression, we identified the transcriptomic aging signature, the list of genes that have statistically significant association with age rescaled by lifespan (the first list). • 3. Genes in the aging signature that have positive correlation with age rescaled by lifespan are over-expressed in late life of the animals, and if a gene's correlation is negative its gene expression decreases with age. • 4. […] The identified aging signature represents a vector of the aging-related changes of gene expression. […] This was done by projecting out all gene expression changes along the aging signature. • 6. After that, by gene-wise linear regression, we identified the list of genes that had statistically significant correlation with lifespan of long-lived strains. That list represents the PI3K-null signature. Genes in the PI3K-null signature that have positive correlation with lifespan are over-expressed in long-lived strains, and vise versa, genes with negative correlations have lower gene expression levels in long-lived mutants with respect to the control lines. • 7. […] Therefore, we would affect the aging process and either slow-down it or reverse it. • 8. We combined those lists, and identified the lists of their human orthologs. • 9. The inhibition of these genes or/and the proteins translated from those genes in humans will also produce life-extending effects. • 10. The predictive value of the aging signature was previously experimentally tested in paper. Along the lines of paper, to test the predictive value of the PI3K-null signature, we identified novel life-extending pharmacological interventions by comparing this signatures with gene expression profile changes in response to pharmacologic perturbations from the Connectivity Map (CMAP) database. Using the PI3K-null signature, we predicted perturbagen-compounds opposing the transcriptomic signature distinguishing long-lived C. elegans mutant strains with a slow aging rate from short-lived strains with a fast aging rate (see Table […] and T1b). To eliminate the confounding effect of different biological ages of nematodes in experimental cohorts, we applied the algorithm developed earlier. From the top of predicted compounds, we selected 8 compounds for a follow-up lifespan screening in C. elegans assay (see Figure F1, Table T2). • 11. We successfully tested the selected compounds in C. elegans survival assay (see Figure F1, Table T2). All 8 compounds produced a significant lifespan extension effect (according to the Log-rank Mantel-Cox method, all results are with p<0.05). Therefore, we experimentally validated the PI3K-null signature's pipeline for the identification of new life-extending compounds. • 12. […] CDK7, CHEK2, CAPN1, CTSB, HSP90AB1, HSP90AA1, HSPA5, NFKB1, NPC1, PABPC1, ABCB11, ABCB1, PLK1, PLK3, ADRA2A, ADRA2C, ADRA2B, TUBB6, SENP8, SENP6, SENP7, MMP14, MMP13, MMP8, MMP3, MMP1, MAPKAPK2, CTSL, CTSK, CTSS, ATXN2, TBXAS1, CREBBP, PDGFRA, FLT4, FLT1, KDR, PDGFRB, FLT3, KIT, CSF1R, IKBKB, IKBKE, PGGT1B, FAAH, GFER, MAPK14, MAPK12, PRKAA1, ABCG2, ADAM17, BACE2, BACE1, TUBB6, CA7, CA2, CA1, CA5A, CA12, CA9, CA4, CTSB, FEN1, HDAC1, HDAC2, HDAC3, CBX1, SLC6A4, SLC6A2, SLC6A3, PPARD, PPARG, PPARA, PSEN2, HTR7, ADRA1B, SMN2, FYN, SRC, LCK, LYN, TARDBP, CLK2, CLK4, USP2, GBA, RECQL, BLM, WRN, CDK2, PRKAG3, TFPI, LTA4H, DPP7, BACE2, BACE1, CAPN1, CTSB, IGF1R, INSR, EYA2, HSPA5, NFKB1, TCF7L2, TARDBP, BRD4. • 13. […] Lifespan assays were conducted at 20° C., as described previously. Briefly, synchronous cultures were initiated by lysis of gravid hermaphrodites in alkaline hypochlorite. Worms were selected at the L4 larval stage, placed 50 worms per plate, and transferred at 1- to 2-day intervals onto fresh plates during days 1-7, and at 2- to 3-day intervals after that. […]

[2] = system: mice given Doxorubicin; assay: Example 33: doxorubicin-induced liver damage (plasma AST); conditions: mouse, in vivo
Description: Doxorubicin if administered by mice reduces total body weight and induces expression of FOXO4 foci and IL-6 in the liver.
On the indicated time points, whole blood samples are collected in a Microvette with Lithium Heparin (Sarstedt) for plasma separation and spun for 10 min at 4.6×g. The (clear) supernatant is transferred into regular 1.5 ml tubes and spun again for 5 min at 4.6×g. The supernatants are transferred again into 1.5 ml tubes, snap frozen in liquid N2 and stored at −80° C. [AST] is measured using an AST Activity Assay Kit (Sigma). The samples are incubated with 100 μl reaction mix in a 96 well plate and place at 37° C. The absorbance at 450 nm is determined after 2 minutes for baseline analysis and after 40 minutes for a final analysis. [Urea] is measured using a QuantiChrom Urea Assay Kit (Gentaur). The samples are incubated in 200 μl reaction mix for 10 minutes at room temperature before absorbance is measured at 520 nm. [Creatinine] is measured using Creatinine Assay Kit (Sigma). Samples are incubated with 50 μl reaction mix at 37° C. for 60 minutes and the absorbance is measured at 570 nm. Ratios comparing plasma values after treatment compared to baseline are determined and plotted as % over baseline in scatter plots.

[3] = patient; cited from earlier work
[4] = system: CIA-induced DBA/1J mice; assay: Example 30: collagen-induced arthritis (CIA); type: in vivo; conditions: 0.2 mg/kg
[5] = system: D. melanogaster; conditions: cited from earlier work
[6] = system: Caenorhabditis elegans; conditions: not replicated in another study; cited from earlier work

SMILES	Mean LS ext., % [1] [%]	Mean LS* [1] [days]	further results
Cc1[nH]c2ccccc2c1CCNCc1ccc(/C=C/C(=O)NO)cc1 [Compound 1, Panobinostat]	8.1	24	
Nc1ccccc1NC(=O)c1ccc(CNC(=O)OCc2cccnc2)cc1 [Compound 2, Entinostat]	8.6	24.1	
CC[C@@]1(O)C(=O)OCc2c1cc1n(c2=O)Cc2cc3c(CN(C)C)c(O)ccc3nc2-1 [Compound 3, Topotecan]	9.7	24.3	
Oc1cccc(-c2nc(N3CCOCC3)c3oc4ncccc4c3n2)c1 [Compound 4, PI-103]	8.6	24.1	
CC(C)CC(=O)Nc1[nH]nc2c1CN(C(=O)C1CCN(C)CC1)C2(C)C [Compound 5, PHA-793887]	6.9	23.7	
CC(C)[C@]12O[C@H]1[C@@H]1O[C@]13[C@]1(O[C@H]1C[C@H]1C4=C(CC[C@@]13C)C(=O)OC4)[C@@H]2O [Compound 6, Triptolide]	10	24.4	
COc1ccc(-c2ccc3c(N4CCOCC4)nc(N4C[C@@H](C)O[C@@H](C)C4)nc3n2)cc1CO [Compound 7, KU-0063794]	10.6	24.5	
CC(/C=C/C(=O)NO)=C\[C@@H](C)C(=O)c1ccc(N(C)C)cc1 [Compound 8, Trichostatin A]	10	24.4	
COc1cccc2c1C(=O)c1c(O)c3c(c(O)c1C2=O)C[C@@](O)(C(=O)CO)C[C@@H]3O[C@H]1C[C@H](N)[C@H](O)[C@H](C)O1 [Doxorubicin]			plasma levels of Aspartate Aminotransferase, AST [2]: strongly induce plasma levels of Aspartate Aminotransferase; total lifetime dose above which myocardial damage may lead to congestive heart failure [3]: exceeds 550 mg/m^2
CN(Cc1cnc2nc(N)nc(N)c2n1)c1ccc(C(=O)N[C@@H](CCC(=O)O)C(=O)O)cc1 [MTX, methotrexate]			development of arthritis [4]: strong inhibitory effect on the development of arthritis
O=C(c1ccc(F)cc1)C1CCN(CCn2c(=O)[nH]c3ccccc3c2=O)CC1 [ketanserin]			lifespan ([5]; fixed-diet conditions): did not affect lifespan; lifespan ([5]; flies allowed to chose nutrients): increased lifespan
CN1CCN2c3ccccc3Cc3ccccc3C2C1 (stereo not shown) [mianserin]			lifespan (prolongevity effect) [6]: prolongevity effect
